Values of other authors as cited in patent US20260034249A1, “COMPOSITIONS AND METHODS FOR MODIFYING FERTILITY” (The Broad Institute, Inc., priority 2023, published 2026).

What was measured:
MT2 over MT1 receptor = molecular target: T1, MT2 over MT1 receptor (Homo sapiens, UniProt P49286); conditions: selectivity MT2 vs MT1
T1 sequence (P49286 1-362): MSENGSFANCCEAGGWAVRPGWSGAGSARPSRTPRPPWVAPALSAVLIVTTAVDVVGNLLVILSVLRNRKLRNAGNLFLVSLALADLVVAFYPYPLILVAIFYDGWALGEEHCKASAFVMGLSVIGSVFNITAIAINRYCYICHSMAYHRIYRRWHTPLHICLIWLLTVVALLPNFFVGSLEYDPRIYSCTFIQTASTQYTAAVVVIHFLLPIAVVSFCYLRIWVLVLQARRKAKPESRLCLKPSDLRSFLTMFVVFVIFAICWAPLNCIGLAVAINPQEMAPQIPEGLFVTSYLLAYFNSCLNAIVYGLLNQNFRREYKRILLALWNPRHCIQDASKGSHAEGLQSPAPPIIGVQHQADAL

SMILES	Vim expression (Vim)	other results
C/C1=C/C(=O)O[C@@H]2C[C@@H](CC[C@H](C)/C=C\C=C\CC1)O[C@@](O)([C@@H]1CSC(=O)N1)C2 [Latrunculin A]	–	binding of TMSB4X to actin (TMSB4X): Sponge toxin that prevents
CC(=O)NCCc1c(Cc2ccccc2)[nH]c2ccccc12 [Luzindole]	–	affinity for MT2 over MT1 receptor (MT2 over MT1 receptor): 25-fold affinity for MT2 over
COc1cc(C2Oc3cc([C@H]4Oc5cc(O)cc(O)c5C(=O)[C@@H]4O)ccc3OC2CO)ccc1O (some centres unmarked) [Silibin]	Decreases Vim expression	–
Oc1ccc(C=Cc2cc(O)cc(O)c2)cc1 [resveratrol]	Decreases Vim expression	–
C[C@@H]1CC[C@@]2(OC1)O[C@H]1C[C@H]3[C@@H]4CC=C5C[C@@H](O[C@@H]6O[C@H](CO)[C@@H](O[C@@H]7O[C@@H](C)[C@H](O)[C@@H](O)[C@H]7O)[C@H](O)[C@H]6O[C@@H]6O[C@@H](C)[C@H](O)[C@@H](O)[C@H]6O)CC[C@]5(C)[C@H]4CC[C@]3(C)[C@H]1[C@@H]2C [dioscin]	Decreases Vim expression	–
